Source: the supplement of paper PMC10307832

Tests used:
Assay in all cases: relative viability (nuclei count vs DMSO), 5 days (fraction); higher = more cells survive
ABC-1 = tested on: ABC-1
Method in brief: (§1)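 Relative viability was taken as the ratio of nuclei in treated wells to nuclei in vehicle wells. Lung cancer cell lines in 1536-well plates received compounds by pin tool one day after seeding, either one drug alone or a fixed anchor-drug dose plus five library-drug doses (not always all listed) in √10 steps. Nuclei were counted on 4× images after 5 days of treatment, and values are medians of duplicate plates.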

EKVX = tested on: EKVX
Method in brief: as §1

EPLC-272H = tested on: EPLC-272H
Method in brief: as §1

NCI-H1975 = tested on: NCI-H1975
Method in brief: as §1

NCI-H1651 = tested on: NCI-H1651
Method in brief: as §1

NCI-H522 = tested on: NCI-H522
Method in brief: as §1

HCC-827 = tested on: HCC-827
Method in brief: as §1

H3255 = tested on: H3255
Method in brief: as §1

NCI-H520 = tested on: NCI-H520
Method in brief: as §1

NCI-H2087 = tested on: NCI-H2087
Method in brief: as §1

NCI-H358 = tested on: NCI-H358
Method in brief: as §1

COR-L 105 = tested on: COR-L 105
Method in brief: as §1

NCI-H661 = tested on: NCI-H661
Method in brief: as §1

NCI-H1792 = tested on: NCI-H1792
Method in brief: as §1

NCI-H838 = tested on: NCI-H838
Method in brief: as §1

NCI-H647 = tested on: NCI-H647
Method in brief: as §1

HCC-44 = tested on: HCC-44
Method in brief: as §1

LCLC-103H = tested on: LCLC-103H
Method in brief: as §1

201T = tested on: 201T
Method in brief: as §1

UMC-11 = tested on: UMC-11
Method in brief: as §1

NCI-H1437 = tested on: NCI-H1437
Method in brief: as §1

NCI-H727 = tested on: NCI-H727
Method in brief: as §1

COR-L23 = tested on: COR-L23
Method in brief: as §1

NCI-H1650 = tested on: NCI-H1650
Method in brief: as §1

HCC-15 = tested on: HCC-15
Method in brief: as §1

**Q.** What does the source list for `CCCCCCCCCCCC1=C(O)C(=O)C=C(O)C1=O` [Embelin] + N=C(N)NC(=N)NCCc1ccccc1 [Phenformin] (partner 250 µM)?
**A.** relative viability (ABC-1; first compound 0.08 µM): 0.251; relative viability (ABC-1; first compound 0.8 µM): 0.237; relative viability (ABC-1; first compound 2.53 µM): 0.256; relative viability (ABC-1; first compound 8 µM): 0.194; relative viability (EKVX; first compound 0.08 µM): 0.245; relative viability (EKVX; first compound 0.8 µM): 0.229; relative viability (EKVX; first compound 2.53 µM): 0.205; relative viability (EKVX; first compound 8 µM): 0.247; relative viability (EPLC-272H; first compound 0.08 µM): 0.307; relative viability (EPLC-272H; first compound 0.8 µM): 0.288; relative viability (EPLC-272H; first compound 2.53 µM): 0.288; relative viability (EPLC-272H; first compound 8 µM): 0.288; relative viability (NCI-H1975; first compound 0.08 µM): 0.445; relative viability (NCI-H1975; first compound 0.8 µM): 0.413; relative viability (NCI-H1975; first compound 2.53 µM): 0.405; relative viability (NCI-H1975; first compound 8 µM): 0.384; relative viability (NCI-H1651; first compound 0.08 µM): 0.346; relative viability (NCI-H1651; first compound 0.8 µM): 0.412; relative viability (NCI-H1651; first compound 2.53 µM): 0.361; relative viability (NCI-H1651; first compound 8 µM): 0.321; relative viability (NCI-H522; first compound 0.08 µM): 0.722; relative viability (NCI-H522; first compound 0.8 µM): 0.856; relative viability (NCI-H522; first compound 2.53 µM): 0.674; relative viability (NCI-H522; first compound 8 µM): 0.621; relative viability (HCC-827; first compound 0.08 µM): 0.426; relative viability (HCC-827; first compound 0.8 µM): 0.451; relative viability (HCC-827; first compound 2.53 µM): 0.477; relative viability (HCC-827; first compound 8 µM): 0.443; relative viability (H3255; first compound 0.08 µM): 0.374; relative viability (H3255; first compound 0.8 µM): 0.326; relative viability (H3255; first compound 2.53 µM): 0.324; relative viability (H3255; first compound 8 µM): 0.362; relative viability (NCI-H520; first compound 0.08 µM): 0.632; relative viability (NCI-H520; first compound 0.8 µM): 0.352; relative viability (NCI-H520; first compound 2.53 µM): 0.742; relative viability (NCI-H520; first compound 8 µM): 0.338; relative viability (NCI-H2087; first compound 0.08 µM): 0.486; relative viability (NCI-H2087; first compound 0.8 µM): 0.459; relative viability (NCI-H2087; first compound 2.53 µM): 0.426; relative viability (NCI-H2087; first compound 8 µM): 0.479; relative viability (NCI-H358; first compound 0.08 µM): 0.322; relative viability (NCI-H358; first compound 0.8 µM): 0.398; relative viability (NCI-H358; first compound 2.53 µM): 0.468; relative viability (NCI-H358; first compound 8 µM): 0.36; relative viability (COR-L 105; first compound 0.08 µM): 0.582; relative viability (COR-L 105; first compound 0.8 µM): 0.595; relative viability (COR-L 105; first compound 2.53 µM): 0.446; relative viability (COR-L 105; first compound 8 µM): 0.496; relative viability (NCI-H661; first compound 0.08 µM): 0.287; relative viability (NCI-H661; first compound 0.8 µM): 0.312; relative viability (NCI-H661; first compound 2.53 µM): 0.276; relative viability (NCI-H661; first compound 8 µM): 0.261; relative viability (NCI-H1792; first compound 0.8 µM): 0.424; relative viability (NCI-H1792; first compound 2.53 µM): 0.271; relative viability (NCI-H1792; first compound 8 µM): 0.218; relative viability (NCI-H838; first compound 0.08 µM): 0.641; relative viability (NCI-H838; first compound 0.8 µM): 0.879; relative viability (NCI-H838; first compound 2.53 µM): 0.543; relative viability (NCI-H838; first compound 8 µM): 0.516; relative viability (NCI-H647; first compound 0.08 µM): 0.632; relative viability (NCI-H647; first compound 0.8 µM): 0.721; relative viability (NCI-H647; first compound 2.53 µM): 0.546; relative viability (NCI-H647; first compound 8 µM): 0.472; relative viability (HCC-44; first compound 0.08 µM): 0.175; relative viability (HCC-44; first compound 0.8 µM): 0.252; relative viability (HCC-44; first compound 2.53 µM): 0.0967; relative viability (HCC-44; first compound 8 µM): 0.0958; relative viability (LCLC-103H; first compound 0.08 µM): 0.337; relative viability (LCLC-103H; first compound 0.8 µM): 0.343; relative viability (LCLC-103H; first compound 2.53 µM): 0.367; relative viability (LCLC-103H; first compound 8 µM): 0.286; relative viability (201T; first compound 0.08 µM): 0.432; relative viability (201T; first compound 0.8 µM): 0.49; relative viability (201T; first compound 2.53 µM): 0.482; relative viability (201T; first compound 8 µM): 0.385; relative viability (UMC-11; first compound 0.08 µM): 0.33; relative viability (UMC-11; first compound 0.8 µM): 0.339; relative viability (UMC-11; first compound 2.53 µM): 0.323; relative viability (UMC-11; first compound 8 µM): 0.314; relative viability (NCI-H1437; first compound 0.08 µM): 0.4; relative viability (NCI-H1437; first compound 0.8 µM): 0.324; relative viability (NCI-H1437; first compound 2.53 µM): 0.298; relative viability (NCI-H1437; first compound 8 µM): 0.243; relative viability (NCI-H727; first compound 0.08 µM): 0.563; relative viability (NCI-H727; first compound 0.8 µM): 0.597; relative viability (NCI-H727; first compound 2.53 µM): 0.513; relative viability (NCI-H727; first compound 8 µM): 0.5; relative viability (COR-L23; first compound 0.08 µM): 0.448; relative viability (COR-L23; first compound 0.8 µM): 0.542; relative viability (COR-L23; first compound 2.53 µM): 0.426; relative viability (COR-L23; first compound 8 µM): 0.462; relative viability (NCI-H1650; first compound 0.08 µM): 0.434; relative viability (NCI-H1650; first compound 0.8 µM): 0.558; relative viability (NCI-H1650; first compound 2.53 µM): 0.485; relative viability (NCI-H1650; first compound 8 µM): 0.376; relative viability (HCC-15; first compound 0.08 µM): 0.477; relative viability (HCC-15; first compound 0.8 µM): 0.504; relative viability (HCC-15; first compound 2.53 µM): 0.461; relative viability (HCC-15; first compound 8 µM): 0.438
